The numbers were not newly measured in patent US20230066947A1, “Method for the augmentation of substance abuse therapies using cannabinoid formulations” (priority 2021, published 2023), which cites them from elsewhere.

Read-outs that look alike come from different tables or passages of the source.

By bioavailability is commonly meant the share of a dose that reaches the circulation, judged against a reference dose that is usually intravenous.

In data set [1] the test system is specific serotonin receptor linked to anti-nausea and anti-anxiety effects.
Another data set has as its target T1, COX-2 (Homo sapiens, UniProt P35354).
T1 sequence (P35354 18-604): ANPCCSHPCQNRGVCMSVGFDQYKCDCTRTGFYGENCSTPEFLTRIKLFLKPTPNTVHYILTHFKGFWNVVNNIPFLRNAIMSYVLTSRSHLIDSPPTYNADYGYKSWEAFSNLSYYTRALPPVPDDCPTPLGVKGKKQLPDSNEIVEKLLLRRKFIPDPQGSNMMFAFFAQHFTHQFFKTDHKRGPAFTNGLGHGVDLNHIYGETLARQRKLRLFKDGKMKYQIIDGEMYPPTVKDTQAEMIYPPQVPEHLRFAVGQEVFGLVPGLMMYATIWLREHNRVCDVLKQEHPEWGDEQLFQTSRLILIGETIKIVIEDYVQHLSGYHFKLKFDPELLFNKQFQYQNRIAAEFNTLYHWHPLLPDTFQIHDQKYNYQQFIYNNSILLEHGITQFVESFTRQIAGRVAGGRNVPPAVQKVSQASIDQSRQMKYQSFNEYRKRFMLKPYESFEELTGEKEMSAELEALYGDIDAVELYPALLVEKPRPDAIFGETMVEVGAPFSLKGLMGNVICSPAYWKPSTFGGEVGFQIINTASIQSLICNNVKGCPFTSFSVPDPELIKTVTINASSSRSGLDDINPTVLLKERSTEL
The settings on record: compared with common NSAIDS.

Regarding `C=C(C)[C@@H]1CCC(C)=C[C@H]1c1c(O)cc(CCCCC)c(C(=O)O)c1O` [CBDA], in data set [1], the “affinity to bind to a specific serotonin receptor” value was “far greater affinity”. Moreover, the bioavailability is, setting by setting: (intraperitoneal administration) 80%; (orally ingested) “approximately 20%”. Further, at COX-2, the COX-2 inhibitor behavior result is “same COX-2 inhibitor behavior”.
